Reference: patent US8420653B2, “Pyrimidine compounds and their uses” (Orchid Chemicals & Pharmaceuticals Limited, priority 2008, dated 2013)

How the values were obtained:
[1] = biological target: T1, purified recombinant COX-2 (Homo sapiens, UniProt P35354); assay: COX-2 enzyme based assay; type: biochemical; settings: for inhibition at 10 µM: read-out: % Inhibition in rEnzyme Assay COX-2; for COX2 at 10 μm: Table XVa summary
T1 sequence (P35354 18-604): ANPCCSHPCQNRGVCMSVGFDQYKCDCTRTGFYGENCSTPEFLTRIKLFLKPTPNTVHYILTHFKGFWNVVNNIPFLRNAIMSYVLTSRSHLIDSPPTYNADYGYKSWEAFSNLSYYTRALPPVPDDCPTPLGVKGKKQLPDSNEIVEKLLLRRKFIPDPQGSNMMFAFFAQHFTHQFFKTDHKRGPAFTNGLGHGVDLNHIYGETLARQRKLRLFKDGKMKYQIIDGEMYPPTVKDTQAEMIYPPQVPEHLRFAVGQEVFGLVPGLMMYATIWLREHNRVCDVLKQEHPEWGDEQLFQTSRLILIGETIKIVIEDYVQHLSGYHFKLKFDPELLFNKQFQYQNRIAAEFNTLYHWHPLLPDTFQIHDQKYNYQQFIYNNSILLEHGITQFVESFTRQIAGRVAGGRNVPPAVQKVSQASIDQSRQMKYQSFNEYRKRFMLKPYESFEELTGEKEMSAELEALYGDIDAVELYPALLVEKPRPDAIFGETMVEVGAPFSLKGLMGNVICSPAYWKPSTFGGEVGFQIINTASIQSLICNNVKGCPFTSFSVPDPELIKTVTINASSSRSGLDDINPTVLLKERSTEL
Method: COX-1 and COX-2 enzyme based assays were carried out to check the inhibitory potential of the test compounds on the production of prostaglandin by purified recombinant COX-1/COX-2 enzyme (Proc. Nat. Acad. Sci. USA, 88, 2692-2696, 1991; J. Clin. Immunoassay 15, 116-120, 1992). In this assay, the potential of the test compound to inhibit the production of prostaglandin either by COX-1 or COX-2 from arachidonic acid (substrate) was measured. This was an enzyme based in-vitro assay to evaluate selective COX inhibition with good reproducibility.
Arachidonic acid was converted to PGH2 (Intermediate product) by COX1/COX-2 in the presence or absence of the test compound. The reaction was carried out at 37° C. and after 2 minutes it was stopped by adding 1M HCl. Intermediate product PGH2 was converted to a stable prostanoid product PGF2α by SnCl2 reduction. The amount of PGF2α produced in the reaction was inversely proportional to the COX inhibitory potential of the test compound. The prostanoid product was quantified via enzyme immunoassay (EIA) using a broadly specific antibody that binds to all the major forms of prostaglandin, using Cayman ELISA kit as per the procedure outlined by the manufacturer (Cayman Chemicals, Ann Arbor, USA).

[2] = system: TNF-α; assay: LPS induced sepsis for measurement of TNF-α inhibition in mice; type: in vivo; settings: mice; for inhibition in vivo at 50 mg/kg: Mus musculus, 1.5 h, oral, serum 90 minutes after LPS; for TNF -α in vivo (mice): Table XVa summary, unit assumed
Method: LPS Induced Sepsis for Measurement of TNF-α Inhibition in Mice
The LPS induced sepsis model in mice was performed as described by Les sekut et al (J Lab Clin Med 1994; 124, 813-20). Female Swiss albino mice were selected and the body weights were equivalent within each group. The mice were fasted for 20 hours with free access to water. The mice were dosed orally with the test compound suspended in vehicle containing 0.5% Tween 80 in 0.25% Carboxy-methylcellulose sodium salt. The control mice were administered the vehicle alone. After 30 minutes of oral dosing, mice were injected with 500 μg of Lipopolysaccharide (Escherichia coli, LPS: B4 from Siga) in phosphate buffer saline solution into the intraperitoneal cavity of the mice. After 90 minutes of LPS administration mice were bled via retro-orbital sinus puncture. Blood samples were stored overnight at 4° C. Serum samples were collected by centrifuging the samples at 4000 rpm for 15 minutes at 4° C. Immediately the serum samples were analyzed for TNF-α levels using commercially available mouse TNF-α ELISA kit (Amersham Biosciences) and assay was performed by the manufacturer instruction.
ED50 Measurement of TNF Alpha Inhibition in Mice Sepsis Model

[3] = system: T2, PDE4; assay: PDE4 activity (source human U937 cells); type: biochemical; settings: for PDE4 inhibition at 10 μM (%): source human U937 cells; for PDE4 at 10 μm: Table XVb summary
T2 construct: other: 10 μM, source human U937 cells; PDE4 at 10 μm
Method: PDE4 inhibition was measured by following a literature assay procedure (Cortizo J et al., Br J. Pharmacol., 1993, 108: 562-568. The assay method involves the following conditions.
Substrate: 1.01 μM [^3H] camp+camp
Pre-Incubation Time/Temperature: 15 minutes at 25° C.
Incubation Time/Temperature. 20 minutes at 25° C.
Incubation buffer: 50 mM Tris-HCl, pH 7.5, 5 mM MgCl2
Quantitation method: Quantitation of [^3H] Adenosine
Significance criteria: ≧50% of max stimulation or inhibition

[4] = system: IL-1β; assay: IL-1β inhibition (Table XVa); type: cell-based; settings: Table XVa summary
[5] = system: TNF- α; assay: TNF-α IC50 (Table XVa, assay not given); type: cell-based; settings: Table XVa summary

For CCOC(=O)C1CCN(c2nc(C(F)(F)F)nc(-c3ccc(F)cc3)c2-c2cccc(S(N)(=O)=O)c2)CC1 [Example 59, Ethyl-1-[5-(3-aminosulfonylphenyl)-6-(4-fluorophenyl)-2-(trifluoromethyl)pyrimidin-4-yl]piperidine-4-carboxylate], the inhibition at 10 µM [1] was 31%, the “COX2 at 10 μm” value [1] was 31 and the inhibition in vivo at 50 mg/kg [2] was 87.2%. For the same compound, the TNF -α in vivo (mice) [2] was 82%, the “PDE4 inhibition at 10 μM (%)” value [3] was 93% and the “PDE4 at 10 μm” value [3] was 87. For the same compound, the “IL-1β at 10 μm” value [4] was 29 and the IC50 [5] was 0.064 µM.

With NS(=O)(=O)c1cccc(-c2c(-c3ccc(F)cc3)nc(C(F)(F)F)nc2-n2ccnc2)c1 [Example 80, 3-[4-(4-Fluorophenyl)-6-(1H-imidazol-1-yl)-2-(trifluoromethyl)pyrimidin-5-yl]benzenesulfonamide] the inhibition at 10 µM [1] was 20%, the “COX2 at 10 μm” value [1] was 20 and the inhibition in vivo at 50 mg/kg [2] was 82.8%. For the same compound, the TNF -α in vivo (mice) [2] was 87%, the “PDE4 inhibition at 10 μM (%)” value [3] was 87% and the “PDE4 at 10 μm” value [3] was 93. For the same compound, the “IL-1β at 10 μm” value [4] was 36 and the IC50 [5] was 0.078 µM.
